Experimental data reported in the RepoRT retention time repository (doi:10.1016/j.jchromb.2020.122105).

Experiments:
Settings in all cases: stereoisomer not certain
[1] = RP, Thermo Scientific Hypercarb, 150 × 2.1 mm, 5 µm, 0.1 mL/min, estimated dead time 3.3 min; A: water + 0.1% formic acid, pH 3; B: methanol + 0.1% formic acid, pH 3; gradient (min/%B) 0/5 5/5 20/100 35/100 35.1/5 45/5
[2] = RP, Waters ACQUITY UPLC BEH C18, 100 × 2.1 mm, 1.7 µm, 0.2 mL/min, estimated dead time 1.1 min; A: water + 0.025% formic acid + 20 mM ammonium acetate + 0.055% ammonium hydroxide, pH 7; B: methanol; gradient (min/%B) 0/5 5/5 25/100 30/100 30.1/5 35/5
[3] = RP, Waters CORTECS T3, 100 × 2.1 mm, 2.7 µm, 0.2 mL/min, estimated dead time 1.1 min; A: water + 0.045% formic acid + 0.11% ammonium hydroxide, pH 7; B: methanol; gradient (min/%B) 0/5 5/5 25/95 25.1/100 35/100 35.1/5 45/5
[4] = RP, Waters ACQUITY UPLC BEH C18, 100 × 2.1 mm, 1.7 µm, 0.1 mL/min, estimated dead time 2.2 min; A: water + 0.045% formic acid + 0.11% ammonium hydroxide, pH 7; B: methanol; gradient (min/%B) 0/5 5/5 25/95 25.1/100 35/100 35.1/5 45/5
[5] = HILIC, Merck SeQuant ZIC-HILIC, 150 × 2.1 mm, 5 µm, 0.75 mL/min, estimated dead time 0.44 min; A: water + 0.1% acetic acid + 10 mM ammonium acetate, pH 4; B: 5% water + 95% acetonitrile + 0.1% acetic acid + 10 mM ammonium acetate, pH 4; gradient (min/%B) 0/95 5/95 20/57 25/57 30/95 40/95
[6] = RP, Waters CORTECS T3, 100 × 2.1 mm, 2.7 µm, 0.3 mL/min, estimated dead time 0.73 min; A: water + 0.1% formic acid, pH 3; B: methanol + 0.1% formic acid, pH 3; gradient (min/%B) 0/0 1/0 6/5 30/100 35/100 35.1/0 40/0
[7] = RP, Waters CORTECS T3, 100 × 2.1 mm, 2.7 µm, 0.25 mL/min, estimated dead time 0.88 min; A: water + 0.1% formic acid, pH 3; B: methanol + 0.1% formic acid, pH 3; gradient (min/%B) 0/0 1/0 6/5 30/100 35/100 35.1/0 40/0
[8] = RP, Waters CORTECS T3, 100 × 2.1 mm, 2.7 µm, 0.3 mL/min, estimated dead time 0.73 min; A: water + 0.1% formic acid, pH 3; B: methanol + 0.1% formic acid, pH 3; gradient (min/%B) 0/0 5/0 25/100 30/100 30.1/0 35/0
[9] = RP, Waters CORTECS T3, 100 × 2.1 mm, 2.7 µm, 0.15 mL/min, estimated dead time 1.5 min; A: water + 0.1% formic acid, pH 3; B: methanol + 0.1% formic acid, pH 3; gradient (min/%B) 0/0 1/0 6/5 30/100 35/100 35.1/0 40/0
[10] = RP, Waters ACQUITY UPLC BEH C18, 100 × 2.1 mm, 1.7 µm, 0.1 mL/min, estimated dead time 2.2 min; A: water + 0.1% formic acid, pH 3; B: methanol + 0.1% formic acid, pH 3; gradient (min/%B) 0/5 5/5 25/100 30/100 30.1/5 35/5
[11] = RP, Waters CORTECS T3, 100 × 2.1 mm, 2.7 µm, 0.2 mL/min, estimated dead time 1.1 min; A: water + 0.1% formic acid, pH 3; B: methanol + 0.1% formic acid, pH 3; gradient (min/%B) 0/0 1/0 6/5 30/100 35/100 35.1/0 40/0
[12] = RP, Waters CORTECS T3, 100 × 2.1 mm, 2.7 µm, 0.3 mL/min, estimated dead time 0.73 min; A: water + 0.1% formic acid, pH 3; B: methanol + 0.1% formic acid, pH 3; gradient (min/%B) 0/5 5/5 25/95 25.1/100 35/100 35.1/5 45/5
[13] = RP, Waters CORTECS T3, 100 × 2.1 mm, 2.7 µm, 0.2 mL/min, estimated dead time 1.1 min; A: water + 0.1% formic acid, pH 3; B: methanol + 0.1% formic acid, pH 3; gradient (min/%B) 0/5 5/5 25/95 25.1/100 35/100 35.1/5 45/5
[14] = RP, Waters CORTECS T3, 100 × 2.1 mm, 2.7 µm, 0.3 mL/min, estimated dead time 0.73 min; A: water + 0.1% formic acid, pH 3; B: methanol + 0.1% formic acid, pH 3; gradient (min/%B) 0/5 5/5 25/100 30/100 30.1/5 35/5

Row | SMILES | LC retention time [1] [min] | LC retention time [2] [min] | LC retention time [4] [min] | other results
1 | NC(CCS)C(=O)O (centres undefined) [HOMOCYSTEINE] | 14 |  |  | 
2 | CC(C)=CCCC(C)C1CCC2(C)C3=C(CCC12C)C1(C)CCC(O)C(C)(C)C1CC3 (centres undefined) [LANOSTEROL] |  | 26.4 |  | 
3 | N[C@@H](Cc1ccc(O)cc1)C(=O)O [L-TYROSINE] | 24.8 |  | 10.2 | LC retention time [3]: 5.83 min
4 | O=C(O)CCCC(=O)C(=O)O [2-OXOADIPATE] |  |  |  | LC retention time [5]: 12.9 min
5 | NC(N)=NCC(=O)O [GUANIDINOACETATE] | 5.04 |  |  | 
6 | NCCCCNCCCN [SPERMIDINE] | 41 |  |  | 
7 | Nc1ccnc(=O)[nH]1 [CYTOSINE] | 13.9 | 1.44 |  | LC retention time [6]: 0.9 min; LC retention time [7]: 1.06 min
8 | NC(N)=NCCCC(=O)O [4-GUANIDINOBUTANOATE] | 13 | 1.39 |  | LC retention time [8]: 0.91 min; LC retention time [9]: 1.8 min; LC retention time [6]: 0.9 min; LC retention time [7]: 1.06 min; LC retention time [10]: 2.71 min
9 | CCCCCCCCCCCCCC(=O)OCC(O)CO (racemic) [RAC-GLYCEROL 1-MYRISTATE] |  |  | 29.1 | LC retention time [10]: 28.2 min; LC retention time [3]: 25.4 min
10 | Cn1cncc1CCN [3-METHYLHISTAMINE] | 4.64 | 1.81 | 3.44 | LC retention time [3]: 1.73 min
11 | Cn1cncc1CC(N)C(=O)O [N(PAI)-METHYL-L-HISTIDINE] | 4.77 | 1.88 |  | 
12 | NCCc1ccccc1 [PHENETHYLAMINE] |  |  | 20.4 | 
13 | CCCCCCCCC=CCCCCCCCC(=O)NC(COP(=O)([O-])OCC[N+](C)(C)C)C(O)C=CCCCCCCCCCCCCC (centres undefined) [SPHINGOMYELIN (d36:2)] |  |  | 37.5 | LC retention time [3]: 28.7 min
14 | N[C@@H](CCOC(=O)CCC(=O)O)C(=O)O [O-SUCCINYL-L-HOMOSERINE] | 16.2 |  |  | LC retention time [8]: 0.93 min; LC retention time [11]: 1.34 min; LC retention time [9]: 1.83 min; LC retention time [6]: 0.92 min; LC retention time [7]: 1.09 min; LC retention time [12]: 0.9 min; LC retention time [10]: 2.74 min
15 | OCC(O)c1ccc(O)c(O)c1 (centres undefined) [3,4-DIHYDROXYPHENYL GLYCOL] |  |  |  | LC retention time [5]: 4.12 min
16 | NC(=O)c1ccc[n+](C2OC(COP(=O)([O-])O)C(O)C2O)c1 (centres undefined) [NICOTINAMIDE MONONUCLEOTIDE] | 26.7 |  |  | LC retention time [10]: 2.69 min
17 | CC(=O)NC1C(O)CC(O)(C(=O)O)OC1C(O)C(O)CO (centres undefined) [N-ACETYLNEURAMINATE] |  |  |  | LC retention time [5]: 12.9 min
18 | COC1=C(OC)C(=O)C(CC=C(C)CCC=C(C)CCC=C(C)CCC=C(C)CCC=C(C)CCC=C(C)CCC=C(C)CCC=C(C)CCC=C(C)CCC=C(C)C)=C(C)C1=O [COENZYME Q10] |  |  | 37.8 | 
19 | O=C(O)C(O)c1ccc(O)c(O)c1 (centres undefined) [DIHYDROXYMANDELIC ACID] |  |  |  | LC retention time [5]: 4.4 min
20 | Cc1ncc(C[n+]2csc(CCO)c2C)c(N)n1 [THIAMINE] | 19.1 | 3.78 |  | LC retention time [8]: 0.89 min; LC retention time [9]: 1.78 min
21 | Cc1ncc(C[n+]2csc(CCOP(=O)(O)O)c2C)c(N)n1 [THIAMINE MONOPHOSPHATE] | 18 | 1.42 | 3.87 | LC retention time [8]: 0.89 min; LC retention time [9]: 1.78 min
22 | O=c1[nH]c(=O)c2ncn(C3OC(CO)C(O)C3O)c2[nH]1 (centres undefined) [XANTHOSINE] |  |  |  | LC retention time [13]: 11.9 min; LC retention time [5]: 11.6 min
23 | NC(N)=NCCC[C@H](N)C(=O)O [L-ARGININE] | 4.77 |  |  | 
24 | CS(=N)(=O)CCC(N)C(=O)O [L-METHIONINE SULFOXIMINE] | 4.77 |  |  | 
25 | Nc1c(O)cccc1C(=O)CC(N)C(=O)O (centres undefined) [3-HYDROXYKYNURENINE] |  |  |  | LC retention time [10]: 2.83 min
26 | CCCCCCC=CCCCCCCCC(=O)O [PALMITOLEIC ACID] |  |  | 29.4 | 

Row | SMILES | LC retention time [1] [min] | LC retention time [2] [min] | LC retention time [4] [min] | other results
27 | C=C1CCC(O)CC1=CC=C1CCCC2(C)C1CCC2C(C)C=CC(C)C(C)C (centres undefined) [VITAMIN D2] |  |  | 33.6 | 
28 | CC(C)=CCCC(C)=CCCC(C)=CCCC(C)=CCC1=C(C)C(=O)c2ccccc2C1=O [MENAQUINONE] |  |  | 34.6 | 
29 | C[Se]CCC(N)C(=O)O (centres undefined) [SELENOMETHIONINE] |  |  |  | LC retention time [10]: 4.52 min
30 | NCCc1cnc[nH]1 [HISTAMINE] | 4.61 | 1.44 | 3.13 | LC retention time [3]: 1.54 min
31 | NC1(C(=O)O)CC1 [1-AMINOCYCLOPROPANE-1-CARBOXYLATE] | 4.48 |  |  | 
32 | N[C@@H](CSSC[C@H](N)C(=O)O)C(=O)O [L-CYSTINE] | 4.99 |  |  | 
33 | N[C@@H](CSCC(=O)O)C(=O)O [S-CARBOXYMETHYL-L-CYSTEINE] | 14.8 |  |  | 
34 | O=C(O)CNC(=O)c1ccccc1 [HIPPURATE] |  |  |  | LC retention time [10]: 14.1 min
35 | N[C@@H](CCSC[C@H](N)C(=O)O)C(=O)O [L-CYSTATHIONINE] | 4.86 |  |  | 
36 | CC(=O)NCCCCN [N-ACETYLPUTRESCINE] |  | 1.39 |  | LC retention time [9]: 1.8 min; LC retention time [10]: 2.71 min
37 | C[N+](C)(C)CCO [CHOLINE] |  | 1.35 |  | 
38 | CN(CC(=O)O)C(=N)N [CREATINE] |  | 1.35 |  | 
39 | CN=C(N)N [METHYLGUANIDINE] | 4.05 | 1.39 |  | LC retention time [7]: 1.06 min
40 | CCCCCCCCCCCCCCCC(=O)O [PALMITATE] |  |  | 36.8 | LC retention time [13]: 33.8 min
41 | NC(CCCC(N)C(=O)O)C(=O)O (centres undefined) [LL-2,6-DIAMINOHEPTANEDIOATE] | 4.49 |  |  | LC retention time [13]: 2.41 min
42 | COc1cc(CCN)ccc1O [3-METHOXYTYRAMINE] | 20.5 |  | 9.22 | LC retention time [3]: 4.87 min
43 | NCCCCN=C(N)N [AGMATINE] |  | 1.44 | 3.67 | LC retention time [3]: 1.58 min
44 | c1ccc2ncccc2c1 [QUINOLINE] | 4.84 |  | 16.1 | LC retention time [3]: 11.7 min
45 | OCCNCCO [DIETHANOLAMINE] |  | 1.35 |  | 
46 | CN1CC(=O)NC1=N [CREATININE] | 4.94 | 1.39 |  | LC retention time [7]: 1.06 min
47 | O=C1CCNC(=O)N1 [5,6-DIHYDROURACIL] |  |  |  | LC retention time [10]: 2.76 min
48 | N[C@@H](Cc1c[nH]c2ccc(O)cc12)C(=O)O [5-HYDROXY-L-TRYPTOPHAN] |  |  |  | LC retention time [14]: 2.7 min
49 | NCCCNCCCN [BIS(3-AMINOPROPYL)AMINE] | 41 |  |  | 
50 | NC(=O)CCCCC1CCSS1 (centres undefined) [LIPOAMIDE] |  |  | 20 | LC retention time [3]: 16 min
51 | C[n+]1cccc(C(N)=O)c1 [1-METHYLNICOTINAMIDE] | 4.94 | 1.35 |  | 
